Literature values as cited in patent US11033512B2, “Transdermal therapeutic system containing asenapine and silicone acrylic hybrid polymer” (LTS LOHMANN Therapie-Systeme AG, priority 2017, dated 2021).

What was measured:
[1] = molecular target: serotonin 5-HT2A receptors (Homo sapiens, UniProt P28223)
serotonin 5-HT2A receptors, sequence (P28223 whole entry): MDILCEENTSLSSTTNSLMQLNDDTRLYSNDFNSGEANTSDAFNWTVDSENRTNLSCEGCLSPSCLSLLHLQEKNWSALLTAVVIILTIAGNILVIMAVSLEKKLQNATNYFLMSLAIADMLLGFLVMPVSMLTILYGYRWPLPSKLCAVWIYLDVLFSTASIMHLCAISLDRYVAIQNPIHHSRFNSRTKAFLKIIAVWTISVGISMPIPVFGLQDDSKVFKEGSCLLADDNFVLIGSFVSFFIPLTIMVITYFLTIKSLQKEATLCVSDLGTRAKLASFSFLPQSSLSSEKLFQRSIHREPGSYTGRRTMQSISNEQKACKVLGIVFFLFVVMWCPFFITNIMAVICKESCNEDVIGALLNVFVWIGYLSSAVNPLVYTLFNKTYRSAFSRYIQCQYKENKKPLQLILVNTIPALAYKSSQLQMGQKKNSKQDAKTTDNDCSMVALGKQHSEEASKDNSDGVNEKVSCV

affinity [1]: high affinity
time of peak blood plasma concentrations (following sublingual administration): 0.5 to 1.5 h
terminal disposition half-life (following sublingual administration, therapeutic doses): ≥ 24 h
bioavailability (if ingested): < 2%
SMILES: CN1C[C@H]2c3ccccc3Oc3ccc(Cl)cc3[C@@H]2C1 (relative stereo) [asenapine, (3aRS,12bRS)-rel-5-chloro-2,3,3a,12b-tetrahydro-2-methyl-1H-dibenz[2,3:6,7]oxepino[4,5-c]pyrrole]
